Measured values as given in the supplement of paper PMC10307832.

Legend:
Experiment in all cases: relative viability (nuclei count vs DMSO), 5 days (fraction); higher = more cells survive
NCI-H322M = tested on: NCI-H322M
Summary of the method: (§1)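 Lung cancer cell lines were seeded in 1536-well plates and dosed by pin tool the next day, with either a single drug or a fixed anchor-drug dose combined with five library-drug doses (not always all listed) spaced in √10 steps. Five days later, one step fixed the cells and stained their nuclei (final 0.05% Triton X-100, 1% formaldehyde, 1 ug/ml Hoechst), and nuclei were counted on 4× images. Relative viability is the nuclei count in treated wells divided by the count in vehicle wells, and each value is the median of duplicate plates.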

UMC-11 = tested on: UMC-11
Summary of the method: as §1

NCI-H1563 = tested on: NCI-H1563
Summary of the method: as §1

ABC-1 = tested on: ABC-1
Summary of the method: as §1

NCI-H1395 = tested on: NCI-H1395
Summary of the method: as §1

NCI-H1792 = tested on: NCI-H1792
Summary of the method: as §1

NCI-H2087 = tested on: NCI-H2087
Summary of the method: as §1

LCLC-103H = tested on: LCLC-103H
Summary of the method: as §1

LK-2 = tested on: LK-2
Summary of the method: as §1

A-427 = tested on: A-427
Summary of the method: as §1

NCI-H1666 = tested on: NCI-H1666
Summary of the method: as §1

PC-14 = tested on: PC-14
Summary of the method: as §1

NCI-H23 = tested on: NCI-H23
Summary of the method: as §1

NCI-H1651 = tested on: NCI-H1651
Summary of the method: as §1

H3255 = tested on: H3255
Summary of the method: as §1

CAL-12T = tested on: CAL-12T
Summary of the method: as §1

NCI-H838 = tested on: NCI-H838
Summary of the method: as §1

NCI-H661 = tested on: NCI-H661
Summary of the method: as §1

NCI-H2228 = tested on: NCI-H2228
Summary of the method: as §1

NCI-H2085 = tested on: NCI-H2085
Summary of the method: as §1

NCI-H358 = tested on: NCI-H358
Summary of the method: as §1

NCI-H1355 = tested on: NCI-H1355
Summary of the method: as §1

COCC1(CO)C(=O)C2CCN1CC2 (stereo not drawn) [PRIMA-1MET] + COc1cccc2cc(-c3nc([C@H]4CC[C@H](C(=O)O)CC4)n4ncnc(N)c34)[nH]c12 [OSI-027] (partner 0.5 µM)
relative viability (NCI-H322M; first compound 0.2 µM): 0.494 | relative viability (NCI-H322M; first compound 0.6325 µM): 0.289 | relative viability (NCI-H322M; first compound 6.325 µM): 0.57 | relative viability (NCI-H322M; first compound 20 µM): 0.13 | relative viability (UMC-11; first compound 0.2 µM): 0.478 | relative viability (UMC-11; first compound 0.6325 µM): 0.46 | relative viability (UMC-11; first compound 2 µM): 0.432 | relative viability (UMC-11; first compound 6.325 µM): 0.485 | relative viability (UMC-11; first compound 20 µM): 0.444 | relative viability (NCI-H1563; first compound 0.2 µM): 0.854 | relative viability (NCI-H1563; first compound 0.6325 µM): 0.789 | relative viability (NCI-H1563; first compound 2 µM): 0.735 | relative viability (NCI-H1563; first compound 6.325 µM): 0.744 | relative viability (NCI-H1563; first compound 20 µM): 0.327 | relative viability (ABC-1; first compound 0.2 µM): 0.37 | relative viability (ABC-1; first compound 0.6325 µM): 0.401 | relative viability (ABC-1; first compound 2 µM): 0.349 | relative viability (ABC-1; first compound 6.325 µM): 0.48 | relative viability (ABC-1; first compound 20 µM): 0.0792 | relative viability (NCI-H1395; first compound 0.2 µM): 0.605 | relative viability (NCI-H1395; first compound 0.6325 µM): 0.492 | relative viability (NCI-H1395; first compound 2 µM): 0.647 | relative viability (NCI-H1395; first compound 6.325 µM): 0.659 | relative viability (NCI-H1395; first compound 20 µM): 0.6 | relative viability (NCI-H1792; first compound 0.2 µM): 0.683 | relative viability (NCI-H1792; first compound 0.6325 µM): 0.693 | relative viability (NCI-H1792; first compound 2 µM): 0.635 | relative viability (NCI-H1792; first compound 6.325 µM): 0.734 | relative viability (NCI-H1792; first compound 20 µM): 0.802 | relative viability (NCI-H2087; first compound 0.2 µM): 0.355 | relative viability (NCI-H2087; first compound 0.6325 µM): 0.481 | relative viability (NCI-H2087; first compound 2 µM): 0.681 | relative viability (NCI-H2087; first compound 6.325 µM): 0.433 | relative viability (NCI-H2087; first compound 20 µM): 0.262 | relative viability (LCLC-103H; first compound 0.2 µM): 0.547 | relative viability (LCLC-103H; first compound 0.6325 µM): 0.391 | relative viability (LCLC-103H; first compound 2 µM): 0.399 | relative viability (LCLC-103H; first compound 6.325 µM): 0.481 | relative viability (LCLC-103H; first compound 20 µM): 0.409 | relative viability (LK-2; first compound 0.2 µM): 0.201 | relative viability (LK-2; first compound 0.6325 µM): 0.186 | relative viability (LK-2; first compound 2 µM): 0.155 | relative viability (LK-2; first compound 6.325 µM): 0.149 | relative viability (LK-2; first compound 20 µM): 0.118 | relative viability (A-427; first compound 0.2 µM): 0.284 | relative viability (A-427; first compound 0.6325 µM): 0.444 | relative viability (A-427; first compound 2 µM): 0.389 | relative viability (A-427; first compound 6.325 µM): 0.263 | relative viability (A-427; first compound 20 µM): 0.369 | relative viability (NCI-H1666; first compound 0.2 µM): 0.791 | relative viability (NCI-H1666; first compound 0.6325 µM): 0.87 | relative viability (NCI-H1666; first compound 2 µM): 0.827 | relative viability (NCI-H1666; first compound 6.325 µM): 0.826 | relative viability (NCI-H1666; first compound 20 µM): 0.714 | relative viability (PC-14; first compound 0.2 µM): 1.01 | relative viability (PC-14; first compound 0.6325 µM): 0.779 | relative viability (PC-14; first compound 2 µM): 0.975 | relative viability (PC-14; first compound 6.325 µM): 0.848 | relative viability (PC-14; first compound 20 µM): 0.0163 | relative viability (NCI-H23; first compound 0.2 µM): 0.456 | relative viability (NCI-H23; first compound 0.6325 µM): 0.509 | relative viability (NCI-H23; first compound 2 µM): 0.511 | relative viability (NCI-H23; first compound 6.325 µM): 0.568 | relative viability (NCI-H23; first compound 20 µM): 0.476 | relative viability (NCI-H1651; first compound 0.2 µM): 0.801 | relative viability (NCI-H1651; first compound 0.6325 µM): 0.756 | relative viability (NCI-H1651; first compound 2 µM): 0.636 | relative viability (NCI-H1651; first compound 6.325 µM): 0.669 | relative viability (NCI-H1651; first compound 20 µM): 0.701 | relative viability (H3255; first compound 0.2 µM): 0.642 | relative viability (H3255; first compound 0.6325 µM): 0.629 | relative viability (H3255; first compound 2 µM): 0.562 | relative viability (H3255; first compound 6.325 µM): 0.658 | relative viability (H3255; first compound 20 µM): 0.498 | relative viability (CAL-12T; first compound 0.2 µM): 0.7 | relative viability (CAL-12T; first compound 0.6325 µM): 0.608 | relative viability (CAL-12T; first compound 2 µM): 0.807 | relative viability (CAL-12T; first compound 6.325 µM): 0.798 | relative viability (CAL-12T; first compound 20 µM): 0.106 | relative viability (NCI-H838; first compound 0.2 µM): 0.428 | relative viability (NCI-H838; first compound 0.6325 µM): 0.5 | relative viability (NCI-H838; first compound 2 µM): 0.295 | relative viability (NCI-H838; first compound 6.325 µM): 0.395 | relative viability (NCI-H838; first compound 20 µM): 0.0935 | relative viability (NCI-H661; first compound 0.2 µM): 0.747 | relative viability (NCI-H661; first compound 0.6325 µM): 0.65 | relative viability (NCI-H661; first compound 2 µM): 0.617 | relative viability (NCI-H661; first compound 6.325 µM): 0.749 | relative viability (NCI-H661; first compound 20 µM): 0.622 | relative viability (NCI-H2228; first compound 0.2 µM): 0.578 | relative viability (NCI-H2228; first compound 0.6325 µM): 0.462 | relative viability (NCI-H2228; first compound 2 µM): 0.442 | relative viability (NCI-H2228; first compound 6.325 µM): 0.481 | relative viability (NCI-H2228; first compound 20 µM): 0.0285 | relative viability (NCI-H2085; first compound 0.2 µM): 0.707 | relative viability (NCI-H2085; first compound 0.6325 µM): 0.665 | relative viability (NCI-H2085; first compound 2 µM): 0.315 | relative viability (NCI-H2085; first compound 6.325 µM): 0.548 | relative viability (NCI-H2085; first compound 20 µM): 0.194 | relative viability (NCI-H358; first compound 0.2 µM): 0.734 | relative viability (NCI-H358; first compound 2 µM): 0.653 | relative viability (NCI-H358; first compound 6.325 µM): 0.954 | relative viability (NCI-H358; first compound 20 µM): 0.365 | relative viability (NCI-H1355; first compound 0.2 µM): 0.361 | relative viability (NCI-H1355; first compound 0.6325 µM): 0.353 | relative viability (NCI-H1355; first compound 2 µM): 0.316 | relative viability (NCI-H1355; first compound 6.325 µM): 0.389 | relative viability (NCI-H1355; first compound 20 µM): 0.406
